Here are results for one compound from PMC11514582, “Leveraging the Aggregated Protein Dye YAT2150 for Malaria Chemotherapy” (Pharmaceutics, 2024).

Series [1] is described as follows: Cytotoxicity assay in MCF7 (MTT). In kind it is cell-based. The note with it: human, MCF-7 cells, read-out: MCF7 inhibition (CC50).
Experimental: (§1) THP-1 human acute monocytic leukemia cells and NCI-H460 human lung carcinoma cells were grown in RPMI supplemented with 10% FBS. Hep-G2 human hepatocellular carcinoma cells were cultured in Eagle’s minimum essential medium (EMEM) supplemented with 10% FBS. A2780 human ovarian carcinoma cells were grown in RPMI supplemented with 10% FBS and 2 mM L-glutamine. MCF-7 human breast adenocarcinoma cells were cultured in EMEM containing 2 mM L-glutamine and Earle’s balanced salt solution adjusted with 1.5 g/L sodium bicarbonate, 0.1 mM non-essential amino acids, and 1 mM sodium pyruvate and supplemented with 10% FBS. […] Except for Caco-2 and HUVEC, inhibition of cell growth was evaluated using a protocol based on monitoring the transformation into formazan of the tetrazolium salt of MTT (3-(4,5-dimethylthiazol-2-yl)-2,5-diphenyltretrazolium bromide) by metabolically active cells. […] After 96 further h of incubation in the same conditions, 10 µL of a 5 mg/mL MTT solution in PBS was added to each sample, and the incubation was resumed for another 4 h. […] The absorbance measurement range was framed between one sample containing 4000 cells in plain growth medium (to determine the stable cell concentration) and another sample containing an equal cell number in growth medium supplemented with growth factors (to measure the maximum cell growth at 96 h).
A short description of series [2]: Cytotoxicity assay in A2780 (MTT). In kind it is cell-based. The following applies: human, A2780 cells, read-out: A2780 inhibition (CC50).
Experimental: as §1
Another series relates to Caco-2 cells. Description: Influx and efflux assays in Caco-2 cells with transporter/endocytosis inhibitors. The format is cell-based, human. The following applies: 5 µM, FBS-free medium. The source says: The panel of influx and efflux membrane transporters expressed in Caco-2 cells has been previously characterized and, to a great extent, mimics the one described in human intestine. Based upon this information and the established knowledge of the physiology of intestinal transporters, we considered the following as possible YAT2150 influx transporters: Organic Cation Transporters (OCTs), Peptide Transporter 1 (PEPT1), and Organic Anion Transporter Polypeptide 2B1 (OATP2B1). […]
Caco-2 cells were grown in monolayer on a solid support at 37 °C in a humidified atmosphere with 5% CO2 and maintained in DMEM supplemented with 10% FBS, 2 mM L-glutamine, 1% MEM non-essential amino acids, 20 U/mL penicillin, and 20 µg/mL streptomycin (Life Technologies, Carlsbad, CA, USA). To identify YAT2150 influx and efflux mechanisms in Caco-2 cells, YAT2150 intracellular accumulation was determined by measuring its fluorescent emission at 610 nm under various experimental conditions as follows. A total of 50,000 cells/well were seeded in MW24 plates, and 24 h after seeding, YAT2150 influx and efflux were determined either in the presence or absence of FBS. […] Then, cells were washed with PBS, and intracellular YAT2150 was determined (see below). […] In parallel, emitted fluorescence was measured in an iBright Imaging System and quantified by iBright Analysis Software 5.3.0 (Thermo Fisher Scientific, Inc.). […]

Series [3] is described as follows: Cytotoxicity assay in Caco-2 (resazurin). The format is cell-based. The following applies: human, read-out: Caco-2 inhibition (CC50).

SMILES strings stand for the structures.

`CCN(CC)c1ccc(/C=C/c2cc[n+](CCCCCCCCCC[n+]3ccc(/C=C/c4ccc(N(CC)CC)cc4)c(C)c3)cc2C)cc1` [YAT2150]: the CC50 – broadly, the concentration giving 50% cytotoxicity – at 96 h was found to be 930 ± 10 nM in series [1] and 590 ± 160 nM in series [2]. Moreover, the “efflux route in Caco-2 cells” value in the series with Caco-2 cells (with efflux inhibitors) is “OSTα/β transporters mediated YAT2150 efflux”. The “influx route in Caco-2 cells” value in the series on Caco-2 cells (with influx inhibitors) is “mainly internalized by endocytosis and also through the OATP2B1 transporter”. Moreover, the CC50 at 48 h in series [3] was 18.2 ± 2.6 µM.
